Here are results for one compound from patent publication US8796457B2, “Compound useful for the treatment of degenerative and inflammatory diseases” (Galapagos NV, priority 2009, dated 2014).

Read-outs that look alike come from different tables or passages of the source.

Series [1] is described as follows: Microsomal stability, rat. As to conditions: rat liver microsomes, 3 μM compound, 37° C. In kind it is in vitro ADME. As for the experimental part: A 10 mM stock solution of compound in DMSO was diluted 1000 fold in a 182 mM phosphate buffer pH7.4 in a 96 deep well plate (Greiner, Cat no. 780285) and pre-incubated at 37° C.
40 μL of deionised water was added to a well of a polypropylene Matrix 2D barcode labelled storage tube (Thermo Scientific) and pre-incubated at 37° C.
A Glucose-6-phophate-dehydrogenase (G6PDH) working stock solution was prepared in 182 mM phosphate buffer pH7.4 and placed on ice before use. A co-factor containing MgCl2, glucose-6-phosphate and NADP+ was prepared in deionised water and placed on ice before use. […]
These plates were sealed with sealing mats (MA96RD-04S) of www.kinesis.co.uk and samples were measured at room temperature on LCMS (ZQ 1525 from Waters) under optimized conditions using Quanoptimize to determine the appropriate mass of the parent molecule.
The samples were analyzed on LCMS with a flow rate of 1 mL/min. […]
Peak area from the parent compound at time 0 was considered to be 100% remaining. The percentage remaining after 1 hour incubation was calculated from time 0 and was calculated as the percentage remaining. […]
The data on microsomal stability are expressed as a percentage of the total amount of compound remaining after 60 minutes.
(In general: Liver microsomes are a subcellular fraction often used to study metabolism.)

For series [2], the system named is JAK1 dependent pathway (IFNα induced pSTAT1) in human whole blood. The series can be described thus: Whole blood assay, IFNα stimulation, Phospho-STAT1 ELISA. In kind it is cell-based. As to conditions: for IC50: Homo sapiens, 6 blood donors, ± SEM, read-out: pIC50 for inhibiting the INFα induced increase of pSTAT1 levels (converted). As for the experimental part: The pH of the buffer was 7.3.
Proteinase inhibitors were added to the buffer before use.
The stock solution was stored at −20° C.
Human blood was collected in heparinized tubes. The blood was divided in aliquots of 392 μL.
The samples were incubated on ice for 15 min.
The cellular extracts were thawed on ice. […] The strips were incubated overnight at 4° C.
Absorbance was measured at 450 nm.
On the technique in general: An ELISA detects its analyte on a solid surface through an enzyme-linked reagent.

Series [3] has as its target Recombinant human JAK3 catalytic domain (Homo sapiens (Human), UniProt P52333). The series can be described thus: JAK3 inhibition assay. In kind it is biochemical. As to conditions: average ± standard error of the mean; 1 μM ATP. As for the experimental part:
Recombinant human JAK3 catalytic domain (amino acids 781-1124; catalog number PV3855) was purchased from Invitrogen. 0.025 mU of JAK3 was incubated with 2.5 μg polyGT substrate (Sigma catalog number P0275) in kinase reaction buffer (25 mM Tris pH 7.5, 0.5 mM EGTA, 0.5 mM Na3VO4, 5 mM b-glycerolphosphate, 0.01% Triton X-100, 1 μM non-radioactive ATP, 0.25 μCi ^33P-gamma-ATP (GE Healthcare, catalog number AH9968) final concentrations) with or without 5 μL containing test compound or vehicle (DMSO, 1% final concentration), in a total volume of 25 μL, in a polypropylene 96-well plate (Greiner, V-bottom). After 105 min at 30° C., reactions were stopped by adding of 25 μL/well of 150 mM phosphoric acid. […] 40 μL/well of Microscint-20 was added, the top of the plates was sealed and readout was performed using the Topcount (Perkin Elmer). Kinase activity was calculated by subtracting counts per minute (cpm) obtained in the presence of a positive control inhibitor (10 μM staurosporine) from cpm obtained in the presence of vehicle. The ability of a test compound to inhibit this activity was determined as: Percentage inhibition=((cpm determined for sample with test compound present−cpm determined for sample with positive control inhibitor) divided by (cpm determined in the presence of vehicle−cpm determined for sample with positive control inhibitor))*100. […]

In series [4] the test system is MMP13 levels in SW1353 cells. Description: OSM/IL-1β signaling assay (MMP13). As to conditions: Homo sapiens, 25 ng/mL OSM and 1 ng/mL IL-1β, 48 hours, average ± standard error of the mean. In kind it is cell-based. An excerpt: 5% CO2. […] The data are expressed as the average EC50 from the assays±standard error of the mean.

Sequence of Recombinant human JAK3 catalytic domain (P52333 781-1124): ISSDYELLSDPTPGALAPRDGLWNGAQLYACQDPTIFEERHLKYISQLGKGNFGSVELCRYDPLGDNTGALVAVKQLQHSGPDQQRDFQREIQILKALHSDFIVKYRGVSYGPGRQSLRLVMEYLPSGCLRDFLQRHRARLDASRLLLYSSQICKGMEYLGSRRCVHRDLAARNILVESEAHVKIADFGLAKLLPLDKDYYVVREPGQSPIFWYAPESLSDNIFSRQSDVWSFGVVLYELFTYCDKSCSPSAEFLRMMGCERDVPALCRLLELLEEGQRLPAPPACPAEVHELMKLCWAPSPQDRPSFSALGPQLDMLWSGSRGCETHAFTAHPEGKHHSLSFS

As usually defined, the EC50 is the midpoint of the concentration-response curve. A lower EC50 goes with an effect from little substance. For `CC1(C)CN(C(=O)c2ccc(-c3cccc4nc(NC(=O)C5CC5)nn34)cc2)C1` [Compound 1, Cyclopropanecarboxylic acid{5-[4-(3,3-dimethyl-azetidine-1-carbonyl)-phenyl]-[1,2,4]triazolo[1,5-a]pyridin-2-yl}-amide], the “Microsomal stability, percentage of compound remaining after 60 minutes, Rat” value in series [1] is 76-100%. Besides, the IC50 in series [2] (additional data analysis protocol (R2 > 0.8, hill slope < 3)) was 617 nM; in series [2] (human whole blood), 479 nM; in series [3], 408 ± 62 nM. The “selectivity for the JAK1 pathway versus the JAK2 pathway” value in series [2] (IFNα pSTAT1 vs GM-CSF IL-8, human whole blood) is listed as 28 fold; in series [2] (additional data analysis protocol, IFNα pSTAT1 vs GM-CSF IL-8) it was 17.6 fold. The compound further registered a concentration giving a half-maximal response (EC50) in series [4] of 4200 ± 2370 nM.
